Results: patent US9487596B2, “Compound isolated from quamoclit, and composition for preventing or treating diabetes containing the compound as an active ingredient” (NANOBIOTECH CO., LTD., priority 2011, dated 2016)

Assays:
[1] = tested on: VEGF protein; assay: VEGF protein expression in ARPE 19 cells induced with 30 mM glucose (VEGF ELISA); format: cell-based, human; conditions: 0.5 μg/ml, 72 hours, FIG. 5
Description: In order to confirm inhibition activity of VEGF of the novel compound isolated from the Quamoclit angulata prepared in Example 1 above, ARPE 19 cell line which is human retinal pigment epithelium cell line was treated with the novel compound and expression of the VEGF protein inducting diabetic complications such as diabetic retinopathy, and the like was confirmed.
10% fetal bovine serum (FBS) was added to DMEM; F12 medium and ARPE 19 cell line (ATCC, USA) was cultured therein. In order to induce expression of the VEGF protein from ARPE 19 cell line, the cells were smeared on 60Φ plate at a concentration of 1×10^5 cell/plate, 10% FBS serum-free was added to DMEM low glucose medium, followed by culturing for 24 hours, the culture fluid was changed into a culture fluid containing 30 mM glucose in the DMEM low glucose medium, and the novel compound KRIBB-BH-P was added thereto so that a final concentration thereof was 0.5 μg/ml, followed by culturing for 72 hours in order to confirm production of VEGF protein. […]
The culture fluid of ARPE 19 cell cultured by the above-described method was obtained and an amount of the secreted VEGF was measured using VEGF ELISA kit (R&D, UK).

[2] = tested on: diabetic model mouse; assay: Creatinine in blood and urine of diabetic mice (ELISA); format: in vivo; conditions: oral, 12 weeks, FIG. 11
Description: Diabetic patients are common to have both of kidney and heart complication. Diabetes may damage kidney which filters and excretes our body's waste. Through creatinine test, a concentration of creatinine in a blood may be measured and a function of kidney may be evaluated creatinine, which is a product obtained by dehydrating creatine produced after protein is used in muscle, is present in a blood with an extremely small amount. In the case in which a function of the kidney is deteriorated, creatinine may not be excreted. Urine and blood from diabetic model mouse of each group treated by oral administration for 12 weeks were collected, and creatinine was measured using ELISA kit (R&D, USA).

[3] = tested on: Min 6 cell line; assay: Insulin secretion in Min 6 pancreatic β cell line (insulin ELISA); format: cell-based, mouse; conditions: Min 6 cells, 25 mM glucose, 0.5 ng/ml, 2 hours, FIG. 6
Description: An insulin secretion acceleration activity of the novel compound KRIBB-BH-P isolated from Quamoclit angulata was confirmed in Min 6 cell line which is a mouse pancreatic β cell tumor.
15% FBS was added to HDMEM medium and Min 6(ATCC, USA) was cultured therein. In order to induce insulin expression from Min 6 cell line, the cells were smeared on a 96 well plate at a concentration of 1×10^4 cell/plate, 15% FBS serum-free was added to DMEM high glucose medium, followed by culturing for 72 hours, washing with PBS buffer solution, and then culturing in HBSS buffer solution for 2 hours, the culture fluid was changed into HBSS buffer solution having 25 mM glucose added thereto, and the novel compound KRIBB-BH-P was added thereto so that a final concentration thereof was 0.5 ng/ml, followed by culturing for 2 hours in order to confirm whether or not the insulin expression was promoted. Here, an amount of insulin expression in cell in which insulin expression was not induced by treatment with 5.5 mM glucose was set as a reference point which is a control group, and a positive control group was prepared by adding amino-guanidine of 1 μM, acarbose of 1 μM, glimepiride of 1 mM. […] The culture fluid of Min 6 cell cultured by the above-described method was obtained and an amount of the secreted insulin was measured using Insulin ELISA kit (R&D, UK).

[4] = tested on: C57BL/6J mouse; assay: Oral glucose tolerance test in high-fat diet mice; format: in vivo; conditions: oral dosing 1, 2, 4, 8, 16, 24 hours before glucose 2 g/kg, result for the 24 hours group, FIG. 9
Description: In order to conduct an oral glucose tolerance test, a 5-week-old mouse (Male C57BL/6J, 19 g, Koatech, Pyeongtaek-si, Gyeonggi-do, Korea) was purchased and adopted under predetermined temperature (25° C.) and humidity (50%) for 1 week and used in an experiment. A general diet group having a general feed as a food and a high-fat diet group having a high-fat feed as a feed were prepared, wherein each group had five mice, and raised for 2 weeks. At the time of two weeks after feeding with high-fat diet, the experimental mice were fasting for 16 hours, and the fasting blood glucose was measured, and then, the sample was orally administered at 1, 2, 4, 8, 16, and 24 hours before measuring the blood glucose, followed by oral administration of glucose 2 g/kg (body weight) and blood glucose thereof was measured every 30 minutes.

[5] = tested on: adiponectin; assay: Adiponectin concentration in blood of diabetic mice (ELISA); format: in vivo, mouse; conditions: FIG. 15
Description: It has consistently proven that adiponectin is secreted from fat cells and abundantly present in blood, is decreased in an obesity patient or type 2 diabetic. In addition, low hypoadiponectinemia is on the rise as a new risk factor of artherosclerotic disease, and a concentration of adiponectin in diabetic patients, in particular, patients accompanying macrovascular complications is decreased. That is, adiponectin has an anti-obesity action, an anti-diabetic action, anti-atherogenic action and an inhibition action of active oxygen generation. A concentration of adiponectin in the blood of the diabetic mouse group raised under conditions of Example 7 was measured using ELISA kit (R&D, USA).

[6] = tested on: lens; assay: Lens culture experiment, xylose-induced lens opacity; conditions: mouse lens, 20 mM xylose, compared to positive control quercetin, FIG. 7
Description: In the case of diabetic, a cataract is developed at an early stage, becomes rapidly worse and eyesight is rapidly deteriorated. Diabetes promotes opaque crystalline lens. Accordingly, diabetic cataract inhibition efficiency was examined by a lens culture experiment.
Eyes of a mouse was extracted and put into an iodine solution to be disinfected and then only the lens was extracted. The extracted eyes were put into M199 medium and cultured in a cell incubator. 20 mM xylose was added to the medium to induce lens opacity and the induced lens opacity was measured using CCD camera.

[7] = tested on: diabetic mouse; assay: Liver toxicity test: alanine transaminase in blood of diabetic mice; format: in vivo; conditions: oral 0.1-10 mg/kg, 12 weeks, FIG. 12
Description: A 6-week-old mouse and a 6-week-old diabetic mouse which are the same as Example 5 above were adapted under predetermined temperature (25° C.) and humidity (50%) for 1 week and used in a liver toxicity test.
A normal mouse control group, a diabetic mouse control group, and each diabetic mouse group treated with Quamoclit angulata-derived novel compound by oral administration at each concentration of 0.1 mg/kg, 1 mg/kg and 10 mg/kg were prepared, wherein each group had five mice, and raised for 12 week. After raising the mice for 12 weeks, blood thereof was collected and a concentration of alanine transaminase was measured.
The alanine transaminase, which is a metabolic enzyme of amino acid, is used in a representative test for diagnosis and result observation.
In order to confirm effects of the Quamoclit angulata-derived novel compound on liver, a normal mouse control group, a diabetic mouse control group and each group treated with Quamoclit angulata-derived novel compound by oral administration at each concentration of 0.1 mg/kg, 1 mg/kg and 10 mg/kg were raised for 12 weeks and blood thereof were collected and a change in alanine transaminase measured using ELISA kit (Cusabio biotech, Japan).

[8] = tested on: diabetic mouse; assay: Insulin resistance (HOMA-IR) and β-cell functionality (HOMA-beta) in diabetic mice; format: in vivo; conditions: FIG. 14
Description: Insulin and blood glucose of the diabetic mouse group raised under conditions of Example 7 above were measured by the fasting blood test or glucose tolerance test and insulin sensitivity index thereof was calculated.
Insulin resistance was evaluated using the insulin sensitivity index which is homeostasis assessment (HOMA)-IR and β-cell Functionality was evaluated by HOMA-beta.
HOMA-IR=(Fasting insulin (μIU/mL)×Fasting glucose ([…]))/22.5 HOMA-beta=20×Fasting insulin (U/mL)/Fasting glucose (mmol/L)−3.5

[9] = tested on: diabetic mouse; assay: Glycated hemoglobin (HbAlc) in diabetic mice (ELISA); format: in vivo; conditions: oral 10 mg/kg, compared to the normal mouse control group (so in the source), FIG. 10
Description: (§1) A normal mouse control group, a diabetic mouse control group, a diabetic mouse group treated with drugs (glimepiride and acarbose), and a diabetic mouse group treated with Quamoclit angulata-derived novel compound were prepared, wherein each group had five mice, and each group treated with the combination administration of the Quamoclit angulata-derived novel compound was treated by oral administration at each concentration of 0.1 mg/kg, 1 mg/kg and 10 mg/kg and raised for 12 weeks. A change in blood glucose in mice of each group was measured every 2 weeks and urine was collected every 6 weeks to measure a urinary protein concentration, and mice was raised for 12 weeks and blood thereof was collected to measure glycated hemoglobin concentration.
In order to decrease complications developed in patients receiving diabetes treatment, it is important to maintain blood glucose at an appropriate level. Since blood glucose measured at one time point may be changed by various factors, the most widely used test with a purpose of identifying a long-term change in regulation of blood glucose is glycated hemoglobin (HbAlc). […] Since the glycated hemoglobin reflects an average blood glucose value for 2 to 4 months, it is useful for identify a degree of regulation of blood glucose in a long term. […]

[10] = tested on: TNF-α; assay: TNF-α concentration in diabetic mice; format: in vivo, mouse; conditions: FIG. 19
Description: TNF-α concentration of the diabetic mouse group raised under conditions of Example 7 above was measured based on the above-description.

[11] = tested on: alpha-glucosidase; assay: Alpha-glucosidase activity in diabetic mice; format: in vivo, mouse; conditions: FIG. 18
Description: Activity of alpha-glucosidase of the diabetic mouse group raised under conditions of Example 7 above was measured based on the above-description.

[12] = tested on: diabetic mouse; assay: Liver function: bilirubin in blood of diabetic mice (ELISA); format: in vivo; conditions: blood after 12 weeks, FIG. 13
Description: In order to confirm whether or not liver function was normal in the group treated with Quamoclit angulata-derived novel compound, bilirubin value was measured using ELISA kit (Cusabio biotech, Japan) using blood collected in Example above. […] Therefore, it may be appreciated that the composition of the present invention is safe composition not causing abnormal liver function.

[13] = tested on: C57BL/Ks DB/DB mouse; assay: Blood glucose in diabetic mice; format: in vivo; conditions: oral, each of 0.1 mg/kg, 1 mg/kg and 10 mg/kg, 12 weeks, FIG. 8
Description: Normal mice and diabetic mice were treated with the Quamoclit angulata-derived novel compound and change in diabetic indexes including blood glucose, glycated hemoglobin, and urinary protein was confirmed.
6-week-old mice (Male C57BL/6J mouse, 20 g, Central Lab. Animal Inc., Seoul) and 6-week-old diabetic mice (Male C57BL/Ks DB/DB mouse, 20 g, Central Lab. Animal Inc., Seoul) were purchased and adopted under predetermined temperature (25° C.) and humidity (50%) for 1 week and used in an experiment.
as §1

[14] = target: T1, DPP-IV (Mus musculus, UniProt P28843); assay: DPP-IV activity in diabetic mice; format: in vivo; conditions: FIG. 17
T1 construct: from tissue
T1 sequence (P28843 whole entry): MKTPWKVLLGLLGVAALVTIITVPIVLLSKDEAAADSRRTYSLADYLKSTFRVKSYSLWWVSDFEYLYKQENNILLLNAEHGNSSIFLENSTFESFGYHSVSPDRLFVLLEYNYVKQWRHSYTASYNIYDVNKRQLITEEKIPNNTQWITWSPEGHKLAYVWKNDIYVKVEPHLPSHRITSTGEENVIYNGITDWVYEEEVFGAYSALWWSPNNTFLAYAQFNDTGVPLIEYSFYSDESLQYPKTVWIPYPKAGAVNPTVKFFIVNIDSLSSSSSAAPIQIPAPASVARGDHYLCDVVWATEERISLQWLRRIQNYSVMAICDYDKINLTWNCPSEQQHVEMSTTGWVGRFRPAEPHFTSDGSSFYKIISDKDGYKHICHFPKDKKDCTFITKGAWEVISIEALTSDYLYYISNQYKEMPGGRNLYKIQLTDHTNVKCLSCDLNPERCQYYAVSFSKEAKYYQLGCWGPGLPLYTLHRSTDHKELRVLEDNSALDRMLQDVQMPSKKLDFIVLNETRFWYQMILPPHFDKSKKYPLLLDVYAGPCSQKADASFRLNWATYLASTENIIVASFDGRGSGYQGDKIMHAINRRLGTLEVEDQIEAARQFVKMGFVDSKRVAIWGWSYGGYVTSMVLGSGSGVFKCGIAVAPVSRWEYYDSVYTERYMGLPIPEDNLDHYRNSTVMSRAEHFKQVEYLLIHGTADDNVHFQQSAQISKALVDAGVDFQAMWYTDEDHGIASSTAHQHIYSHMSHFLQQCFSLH
Description: Both of GIP and GLP-1 are rapidly decomposed by dipeptidyl peptidase (DPP)-4 which is a series of serine protease. DPP-4 inhibition efficacy of the diabetic mouse group raised under conditions of Example 7 above was confirmed based on the above description.

[15] = tested on: diabetic mouse; assay: Anti-cataract effect: eye lens turbidity in diabetic mice; format: in vivo; conditions: FIG. 20
Description: Eye lens was isolated from eyeball extracted from the diabetic mouse group raised under conditions of Example 7 above and moved to a well plate and then a photograph thereof was taken by LAS 3000 image analysis system. Turbidity of the eye lens was measured by analyzing the photograph using LAS 300 image analysis program.

[16] = tested on: glucagon; assay: Plasma glucagon concentration in diabetic mice; format: in vivo, mouse
Description: In type 2 diabetic patients, blood glucose is increased, insulin secretion by glucose intake is delayed, and glucagon is increased. It is generally known that decrease in a ratio of insulin to plasma glucagon is associated with deterioration of diabetes. Therefore, a concentration of glucagon of the diabetic mouse group raised under conditions of Example 7 above was confirmed.

## CCCCCC(CCCC(O)CC(=O)O)OC1OC(COC2OC(C)C(OC3CC(O)C(O)C(C)O3)CC2O)C(O)C(O)C1OC1CC(O)C(OC2CC(O)C(OC3CC(O)C(OC)C(C)O3)C(C)O2)C(C)O1 (stereo not shown) [KRIBB-BH-P]
[1]
  VEGF expression: decreased
[2]
  concentration of creatinine in the blood: decreased
  concentration of creatinine in the urine: increased
[3]
  insulin expression: increased
[4]
  efficacy in oral glucose tolerance test (blood glucose): highest efficacy
[5]
  expression of adiponectin: increased
[6]
  lens opacity: more inhibited
[7]
  liver toxicity: no liver toxicity
[8]
  insulin resistance (HOMA-IR): remarkably excellent result
  β-cell functionality (HOMA-beta): remarkably excellent result
[9]
  glycated hemoglobin value: remarkably decreased
[10]
  TNF-α concentration: decreased
[11]
  activity of alpha-glucosidase: inhibited
[12]
  bilirubin value: included in a normal range
[13]
  blood glucose: remarkably decreased
[14]
  activity of DPP IV: inhibited
[15]
  turbidity of the eye lens: decreased
[16]; compared to the diabetic mouse control group
  concentration ratio of insulin to glucagon: remarkably increased
[16]; lower than that of the group treated with the drugs, FIG. 16
  concentration of plasma glucagon: remarkably decreased
